Read-outs that look alike come from different tables or passages of the source.
Key:
[1] = tested on: human colorectal cancer HCT116 xenograft
Description: The human colorectal cancer cell line HCT116 was purchased from ATCC. Cells were monolayer cultured in McCoy's 5a medium containing 2 mM L-glutamine and 10% (v/v) fetal bovine serum.
Five-week old male athymic nude mice (BALB/c nu/nu) were purchased from Charles River Japan. The mice were reared for at least one week prior to the experiment at the animal facility of the research institute.
A single cell suspension of HCT116 (8×10^6 cells per mouse) was inoculated subcutaneously into the right side of the abdomen of each mouse. The tumor size of each mouse was measured twice a week and the tumor volume was estimated using the ab^2/2 formula (a and b refer to the length and width of the tumor, respectively). Randomization and administration pharmaceuticals were begun the day the tumor volume exceeded 100 mm^3
The dosage is as follows.
Capecitabine was dissolved and diluted in 40 mM citric acid buffer (pH6) containing 5% gum arabic.

[2] = tested on: human pancreatic cancer Capan-1 xenograft; conditions: mice; i.v. once a week for four consecutive weeks
Description: A single cell suspension of Capan-1 (8.4×10^6 cells per mouse) was inoculated subcutaneously into the right side of the abdomen of each mouse. The tumor size of each mouse was measured twice a week and the tumor volume was estimated using the ab^2/2 formula (a and b refer to the length and width of the tumor, respectively). Randomization and administration of pharmaceuticals were begun the day the tumor volume exceeded 100 mm^3
Gemcitabine was dissolved and diluted in physiological saline, and intravenously administered once a week for four consecutive weeks.
Gemcitabine was administered once a week for four consecutive weeks.

[3] = tested on: human lung cancer Calu-6 xenograft; assay: Antitumor effect in xenograft model, compound 2A plus CDDP or carboplatin (Example 4); assay type: in vivo; conditions: mice; i.v. once in a three-week period
Description: The human lung cancer cell line Calu-6 was purchased from ATCC.
CPT-11, CDDP, and carboplatin were purchased from Daiichi Pharmaceuticals, Nippon Kayaku, and Bristol-Meyers Squibb, respectively.
Compound 2A, CPT-11, CDDP, and carboplatin were dissolved and diluted in a saline solution. […] CDDP and carboplatin were intravenously administered once in a three-week period.
In one therapeutic cycle, compound 2A and CPT-11 were administered once a week for three consecutive weeks, and CDDP and carboplatin were administered once in the three-week period.

CCCCCOC(=O)Nc1nc(=O)n([C@@H]2O[C@H](C)[C@@H](O)[C@H]2O)cc1F [capecitabine]
MTD (maximum tolerated dose) ([1]; mouse, in vivo, po): 360 mg/kg/injection

CCCCCN1C=Nc2cccc3nc4c(c1c23)Cn1c-4cc2c(c1=O)COC(=O)[C@@]2(CC)OC(=O)CN(C)C(=O)CN.Cl [compound 2A, (9S)-9-ethyl-9-(glycyl-sarcosyloxy)-1-pentyl-1H,12H-pyrano[3″,4″:6′,7′]indolizino[1′,2′:6,5]pyrido[4,3,2-de]quinazoline-10,13(9H,15H)-dione hydrochloride]
MTD (maximum tolerated dose) ([1]; mice, i.v. once during a three-week period, actually measured weight of the hydrochloride): 60 mg/kg/injection
MTD (maximum tolerated dose) as free base ([1]; mice, i.v. once during a three-week period, weight converted to free base): 47 mg/kg/injection

Nc1ccn([C@@H]2O[C@H](CO)[C@@H](O)C2(F)F)c(=O)n1 [gemcitabine]
MTD (maximum tolerated dose) [2]: 400 mg/kg/injection

N.N.O=C([O-])C1(C(=O)[O-])CCC1.[Pt+2] [carboplatin]
MTD (maximum tolerated dose) [3]: 50 mg/kg/injection
